Where a name gives a salt, the structure may show the parent alone.
Experiments:
PDE1B null mice = experiment: Methamphetamine-stimulated horizontal locomotor activity (Digiscan apparatus); settings: 1 mg/kg subcutaneous
[1] = system: D1-mediated phosphorylation; experiment: D1-mediated phosphorylation in nucleus accumbens slices; type: cell-based, mouse; settings: D1 receptor agonist
Description: Male PDE1B−/− (null) and WT mice (8-12 weeks of age) were decapitated. The brain was transferred rapidly to an ice-cold surface, blocked, and fixed to the cutting surface of a Vibratome (Ted Pella, Redding, Calif.) maintained at 4° C. The brain was submersed in cold, oxygenated (95% O2/5% CO2) Krebs' bicarbonate buffer of the following composition (in mM): 125 NaCl, 5KCl, 26 NaHCO3, 1.5 CaCl2, 1.5 MgSO4, and 10 glucose, pH 7.4. Coronal mouse brain sections (400 μm in thickness) were cut and pooled in cold buffer. Striatal or nucleus accumbens slices were cut from the coronal sections under a dissecting microscope. Individual slices were preincubated in fresh buffer for 15 min at 30° C.; the buffer was replaced, and preincubation continued for an additional 30 min. At the end of this second preincubation period the buffer was replaced with Krebs' buffer or buffer containing test substances for 5 min. Slices were frozen immediately in liquid nitrogen and stored at −80° C. until assayed. […]
(§1) Chemiluminescence was detected by autoradiography and bands were quantified by analysis of scanned images using NIH Image 1.52 software. Because the linear range for quantitation of ECL signals by densitometry is limited, several film exposures were obtained for each set of samples to insure that the signals were within a density range that allowed for accurate quantitation. […]

[2] = system: GluR1 AMPA receptor at Ser845; experiment: Phosphorylation of GluR1 AMPA receptor at Ser845 in striatal slices, immunoblot with phosphorylation state-specific antibodies; type: cell-based, mouse; settings: striatal slices of PDE1B null mice; 10 μM, 10 minutes
Description: (§2) Male PDE1B−/− (null) and WT mice (8-12 weeks of age) were decapitated. The brain was transferred rapidly to an ice-cold surface, blocked, and fixed to the cutting surface of a Vibratome (Ted Pella, Redding, Calif.) maintained at 4° C. The brain was submersed in cold, oxygenated (95% O2/5% CO2) Krebs' bicarbonate buffer of the following composition (in mM): 125 NaCl, 5KCl, 26 NaHCO3, 1.5 CaCl2, 1.5 MgSO4, and 10 glucose, pH 7.4. Coronal mouse brain sections (400 μm in thickness) were cut and pooled in cold buffer. Striatal or nucleus accumbens slices were cut from the coronal sections under a dissecting microscope. Individual slices were preincubated in fresh buffer for 15 min at 30° C.; the buffer was replaced, and preincubation continued for an additional 30 min. […] Slices were frozen immediately in liquid nitrogen and stored at −80° C. until assayed.
Frozen slices were sonicated in homogenization buffer containing 1% SDS. […]
as §1

DARPP-32 at Thr34 = experiment: Phosphorylation of DARPP-32 at Thr34 in striatal slices, immunoblot with phosphorylation state-specific antibodies; type: cell-based, mouse; settings: for increase in levels of phospho-Thr34 DARPP-32 and phospho-Ser845 GluR1: forskolin (10, unit not given)
Description: as §2
Frozen slices were sonicated in homogenization buffer containing 1% SDS. Small aliquots of the homogenate were retained for protein determination by standard assays using bovine serum albumin as the standard. Equal amounts of protein (50 μg) were loaded onto 10% acrylamide gels, separated by SDS/PAGE, and transferred to nitrocellulose membranes by a method described by Tobin et al. (1979. Proc. Natl. Acad. Sci, USA 76:4350-4354). […]
as §1

With `CN[C@@H](C)Cc1ccccc1` [methamphetamine, d-methamphetamine hydrochloride] the “duration of stimulated hyperactivity response after treatment” value (PDE1B null mice) was 90 min.
For `Oc1cc2c(c(Cl)c1O)CCNCC2c1ccccc1` (stereo not drawn) [SKF81297], the “D1-mediated phosphorylation in PDE1B null mice as compared to wild-type mice” value [1] was “enhanced”, the “increase for phospho-Ser845 as compared to controls” value [2] was 13 fold and the “increase for phospho-Thr34 as compared to controls” value (DARPP-32 at Thr34; striatal slices of PDE1B null mice, 10 μM, 10 minutes) was 15 fold.
For `C=C[C@@]1(C)CC(=O)[C@]2(O)[C@@]3(C)[C@@H](O)CCC(C)(C)[C@@H]3[C@H](O)[C@H](OC(C)=O)[C@@]2(C)O1` [Forskolin], the “increase in levels of phospho-Thr34 DARPP-32 and phospho-Ser845 GluR1” value (DARPP-32 at Thr34; striatal slices from PDE1B null mice) was 65 fold and the “increase in levels of phospho-Thr34 DARPP-32 and phospho-Ser845 GluR1” value (DARPP-32 at Thr34; striatal slices from wild-type mice) was 21 fold.

From US9157906B2, “Phosphodiesterase activity and regulation of phosphodiesterase 1B-mediated signaling in brain” (THE ROCKEFELLER UNIVERSITY, priority 2001, dated 2015)
